Measurements as given in US5380359A, “Cosmetics based on naturally derived melanin-coated pigments” (Kyowa Hakko Kogyo Co., Ltd., priority 1992, dated 1995).

Test: Anti-oxidizing property: lipid peroxide elimination rate (Determiner LPO, cumene hydroperoxide)
Assay type: biochemical
Conditions: concentration of 0.014%
Description: Purified water was added to 0.1 g of microbial melanin, synthetic melanin or sepia melanin and 0.1 g of sodium hydroxide to prepare 100 ml of solution, and the pH was adjusted to 7 with hydrochloric acid.
To 0.1 g of dl-α-tocopherol was added ethanol to prepare 100 ml of solution.
To 0.1 g of ascorbic acid was added purified water to prepare 100 ml of solution.
To 5.02 mg of an 80% cumene hydroperoxide (hereinafter abbreviated to CPO) solution was added purified water to prepare 100 ml of solution (264 nmol/ml).
The microbial melanin solution, the ascorbic acid solution, the dl-α-tocopherol solution, the synthetic melanin solution or the sepia melanin solution was added to a system in which CPO was reacted with a methylene blue derivative in the presence of hemoglobin as a catalyst, using Determiner LPO (product of Kyowa Medex Co., Ltd.) as a reaction reagent, thereby producing an equimolar amount of methylene blue which developed the color of the system. The anti-oxidizing property of the microbial melanin, ascorbic acid, dl-α-tocopherol, the synthetic melanin and the sepia melanin was determined on the basis of the degree of inhibition of the production of methylene blue. […]
In the equation, As indicates the absorbance of the test sample, Astd the absorbance of the standard sample, and AB the absorbance of the blank test sample. […]

Row | Compound | Lipid peroxide elimination rate [%]
1 | Cc1c(C)c2c(c(C)c1O)CCC(C)(CCCC(C)CCCC(C)CCCC(C)C)O2 (racemic) [dl-α-tocopherol] | 72.4
2 | O=C1O[C@H]([C@@H](O)CO)C(O)=C1O [Ascorbic acid, ascorbic acid] | 97.4
